Measured values taken from patent US11661440B2 (priority 2015, dated 2023).
“Also recorded” adds a separate entry of the source. Ends that are not written are not given here.

How the values were obtained:
[1] = tested on: NMDA receptor; assay type: cell-based, rat
[2] = biological target: GluN2B recombinant subunit (Rattus norvegicus, UniProt Q00960); conditions: cited from earlier work
[3] = biological target: NMDA receptor GluN2B subunit (Mus musculus, UniProt Q01097); conditions: cited from earlier work
Sequence of NMDA receptor GluN2B subunit (Q01097 whole entry, looked up): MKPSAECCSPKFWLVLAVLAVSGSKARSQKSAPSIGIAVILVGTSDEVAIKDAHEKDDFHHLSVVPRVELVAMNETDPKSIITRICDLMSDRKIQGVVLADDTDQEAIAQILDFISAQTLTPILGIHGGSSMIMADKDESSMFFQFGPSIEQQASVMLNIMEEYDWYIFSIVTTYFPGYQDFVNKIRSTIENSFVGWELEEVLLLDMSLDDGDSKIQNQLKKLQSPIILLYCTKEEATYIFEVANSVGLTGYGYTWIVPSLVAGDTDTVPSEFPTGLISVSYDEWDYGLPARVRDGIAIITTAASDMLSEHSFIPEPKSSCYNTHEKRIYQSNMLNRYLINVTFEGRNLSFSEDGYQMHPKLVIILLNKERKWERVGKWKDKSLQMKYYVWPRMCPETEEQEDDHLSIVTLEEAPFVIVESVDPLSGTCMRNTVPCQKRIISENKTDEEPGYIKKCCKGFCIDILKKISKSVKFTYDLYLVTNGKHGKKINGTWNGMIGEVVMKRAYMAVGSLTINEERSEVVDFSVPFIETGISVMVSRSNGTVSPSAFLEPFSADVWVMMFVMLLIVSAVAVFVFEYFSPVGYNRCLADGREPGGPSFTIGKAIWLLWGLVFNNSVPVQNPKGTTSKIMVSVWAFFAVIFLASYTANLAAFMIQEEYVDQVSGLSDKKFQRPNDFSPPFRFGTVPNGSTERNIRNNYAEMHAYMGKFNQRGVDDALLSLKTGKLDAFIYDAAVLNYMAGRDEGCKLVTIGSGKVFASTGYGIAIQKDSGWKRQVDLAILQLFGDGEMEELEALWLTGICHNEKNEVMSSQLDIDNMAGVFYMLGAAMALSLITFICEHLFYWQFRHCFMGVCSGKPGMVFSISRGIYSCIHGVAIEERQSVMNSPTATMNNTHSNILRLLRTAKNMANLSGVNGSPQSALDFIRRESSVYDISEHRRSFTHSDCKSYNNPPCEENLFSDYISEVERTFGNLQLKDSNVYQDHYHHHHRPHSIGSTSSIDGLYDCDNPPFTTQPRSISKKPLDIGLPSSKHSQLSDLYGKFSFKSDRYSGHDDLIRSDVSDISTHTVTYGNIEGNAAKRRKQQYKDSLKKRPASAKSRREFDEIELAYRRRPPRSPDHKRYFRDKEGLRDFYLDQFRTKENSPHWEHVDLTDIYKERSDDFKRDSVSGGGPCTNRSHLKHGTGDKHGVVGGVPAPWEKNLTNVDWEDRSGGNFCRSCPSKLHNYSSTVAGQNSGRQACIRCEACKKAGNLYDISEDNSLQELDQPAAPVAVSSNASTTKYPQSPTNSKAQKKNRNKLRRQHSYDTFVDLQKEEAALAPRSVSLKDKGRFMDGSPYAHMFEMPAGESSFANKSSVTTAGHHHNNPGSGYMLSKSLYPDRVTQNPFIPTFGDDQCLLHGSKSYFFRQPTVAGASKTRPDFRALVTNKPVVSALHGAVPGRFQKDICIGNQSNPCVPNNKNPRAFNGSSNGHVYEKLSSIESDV

Sequence of GluN2B recombinant subunit (Q00960 27-1482, other chains not shown): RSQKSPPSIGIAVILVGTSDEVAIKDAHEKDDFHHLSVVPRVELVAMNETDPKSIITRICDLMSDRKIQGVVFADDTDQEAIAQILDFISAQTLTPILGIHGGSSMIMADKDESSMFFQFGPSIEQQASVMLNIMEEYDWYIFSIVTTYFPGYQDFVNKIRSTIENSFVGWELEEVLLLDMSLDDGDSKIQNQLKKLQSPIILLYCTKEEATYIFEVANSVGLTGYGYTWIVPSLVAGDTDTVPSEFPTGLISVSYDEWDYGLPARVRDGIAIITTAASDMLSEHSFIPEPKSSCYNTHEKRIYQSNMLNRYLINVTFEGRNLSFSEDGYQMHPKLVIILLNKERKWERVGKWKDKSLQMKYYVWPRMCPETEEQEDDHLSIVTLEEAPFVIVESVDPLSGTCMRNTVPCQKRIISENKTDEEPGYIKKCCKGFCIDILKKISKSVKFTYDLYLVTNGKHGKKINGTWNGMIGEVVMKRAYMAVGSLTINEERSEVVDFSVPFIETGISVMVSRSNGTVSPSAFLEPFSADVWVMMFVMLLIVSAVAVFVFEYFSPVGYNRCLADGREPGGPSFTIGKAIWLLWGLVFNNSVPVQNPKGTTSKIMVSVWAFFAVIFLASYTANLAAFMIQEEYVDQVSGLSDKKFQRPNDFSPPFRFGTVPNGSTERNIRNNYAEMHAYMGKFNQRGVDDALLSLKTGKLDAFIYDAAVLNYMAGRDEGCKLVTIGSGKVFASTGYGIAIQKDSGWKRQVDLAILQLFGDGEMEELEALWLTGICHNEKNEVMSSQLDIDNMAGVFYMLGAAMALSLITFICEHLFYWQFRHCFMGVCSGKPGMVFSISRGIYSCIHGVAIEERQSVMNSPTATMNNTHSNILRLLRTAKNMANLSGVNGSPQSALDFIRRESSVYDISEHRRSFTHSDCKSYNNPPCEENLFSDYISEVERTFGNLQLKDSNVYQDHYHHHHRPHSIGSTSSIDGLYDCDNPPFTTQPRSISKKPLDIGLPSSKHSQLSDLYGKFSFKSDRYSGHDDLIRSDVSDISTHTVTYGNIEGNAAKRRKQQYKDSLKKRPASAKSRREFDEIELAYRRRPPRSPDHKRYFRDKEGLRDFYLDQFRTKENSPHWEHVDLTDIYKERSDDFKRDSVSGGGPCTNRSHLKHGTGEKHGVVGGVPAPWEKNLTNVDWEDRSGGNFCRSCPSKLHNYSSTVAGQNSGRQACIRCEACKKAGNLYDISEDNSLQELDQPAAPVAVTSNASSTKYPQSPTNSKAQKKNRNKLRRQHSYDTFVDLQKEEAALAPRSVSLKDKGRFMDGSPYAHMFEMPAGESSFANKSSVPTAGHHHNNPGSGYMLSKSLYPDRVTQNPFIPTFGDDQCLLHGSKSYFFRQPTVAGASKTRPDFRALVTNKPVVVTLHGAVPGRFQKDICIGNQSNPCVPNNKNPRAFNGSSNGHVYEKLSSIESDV

Molecule: C[C@]12N[C@H](Cc3ccccc31)c1ccccc12 [(+)-MK-801, dizocilpine]
- blocking of input current due to stimulation by peptide SEQ ID NO: 4 [1]: more than 90%
- blocking of the response (in words) [1]: almost total blocking of the response
- reduction in the response obtained by stimulation with NMDA/glycine [1]: more than 50%

Molecule: C[C@@H](CN1CCC(Cc2ccccc2)CC1)[C@@H](O)c1ccc(O)cc1 [Ro 25-9681]
- blocking of the response evoked by NMDA/glycine [1]: less than 50%
- IC50 [2]: 9 nM

Molecule: GEγγLQγNQγLIRγKSN-NH2 [conantokin-G]
- IC50 [3]: 500 nM
- IC50 [2]: 100 nM

Molecule: KLGMRSELQIDNDQDAD [SEQ ID NO: 4]
- agonist effect: input current evoked by the peptide (in words) [1]: evoked input current via the NMDA receptor; also recorded: an input current was found
